Measurements taken from the supplement of paper PMC10307832.

Key:
Experiment in all cases: relative viability (nuclei count vs DMSO), 5 days (fraction); higher = more cells survive
BX 795 + OSI-027 = compound: O=C(NCCCNc1nc(Nc2cccc(NC(=O)N3CCCC3)c2)ncc1I)c1cccs1 [BX 795] + COc1cccc2cc(-c3nc([C@H]4CC[C@H](C(=O)O)CC4)n4ncnc(N)c34)[nH]c12 [OSI-027] (partner 0.5 µM)
In short: (§1)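 Relative viability is defined as nuclei in treated wells over nuclei in vehicle wells. Duplicate plates were run and medians reported. Lung cancer cell lines in 1536-well plates were dosed by pin tool one day after seeding, with one drug or with a fixed anchor-drug dose plus five library-drug doses (not always all listed) in √10 steps, and nuclei were counted after 5 days.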

BX 795 + Pictilisib = compound: O=C(NCCCNc1nc(Nc2cccc(NC(=O)N3CCCC3)c2)ncc1I)c1cccs1 [BX 795] + CS(=O)(=O)N1CCN(Cc2cc3nc(-c4cccc5[nH]ncc45)nc(N4CCOCC4)c3s2)CC1 [Pictilisib] (partner 1 µM)
In short: as §1

BX 795 + Phenformin = compound: O=C(NCCCNc1nc(Nc2cccc(NC(=O)N3CCCC3)c2)ncc1I)c1cccs1 [BX 795] + N=C(N)NC(=N)NCCc1ccccc1 [Phenformin] (partner 250 µM)
In short: as §1

BX 795 + Olaparib = compound: O=C(NCCCNc1nc(Nc2cccc(NC(=O)N3CCCC3)c2)ncc1I)c1cccs1 [BX 795] + O=C(c1cc(Cc2n[nH]c(=O)c3ccccc23)ccc1F)N1CCN(C(=O)C2CC2)CC1 [Olaparib] (partner 8 µM)
In short: as §1

BX 795 + Luminespib = compound: O=C(NCCCNc1nc(Nc2cccc(NC(=O)N3CCCC3)c2)ncc1I)c1cccs1 [BX 795] + CCNC(=O)c1noc(-c2cc(C(C)C)c(O)cc2O)c1-c1ccc(CN2CCOCC2)cc1 [Luminespib] (partner 0.01 µM)
In short: as §1

Row | Cell Line | relative viability (BX 795 + OSI-027; first compound 0.04 µM) | relative viability (BX 795 + OSI-027; first compound 0.1265 µM) | relative viability (BX 795 + OSI-027; first compound 0.4 µM) | relative viability (BX 795 + OSI-027; first compound 1.265 µM) | relative viability (BX 795 + Pictilisib; first compound 0.04 µM) | relative viability (BX 795 + Pictilisib; first compound 0.1265 µM) | relative viability (BX 795 + Pictilisib; first compound 0.4 µM) | relative viability (BX 795 + Pictilisib; first compound 1.265 µM) | relative viability (BX 795 + Phenformin; first compound 0.04 µM) | relative viability (BX 795 + Phenformin; first compound 0.1265 µM) | relative viability (BX 795 + Phenformin; first compound 0.4 µM) | relative viability (BX 795 + Phenformin; first compound 1.265 µM) | relative viability (BX 795 + Olaparib; first compound 0.04 µM) | relative viability (BX 795 + Olaparib; first compound 0.1265 µM) | relative viability (BX 795 + Olaparib; first compound 0.4 µM) | relative viability (BX 795 + Olaparib; first compound 1.265 µM) | relative viability (BX 795 + Luminespib; first compound 0.04 µM) | relative viability (BX 795 + Luminespib; first compound 0.1265 µM) | relative viability (BX 795 + Luminespib; first compound 0.4 µM) | relative viability (BX 795 + Luminespib; first compound 1.265 µM)
1 | HCC-78 | 0.363 | 0.369 | 0.393 | 0.363 | 0.236 | 0.206 | 0.154 | 0.218 | 0.853 | 0.656 | 0.817 | 0.708 | 1.1 | 0.811 | 0.882 | 0.605 |  |  |  | 
2 | HCC-366 | 1.08 | 0.881 | 0.644 | 0.444 | 0.145 | 0.137 | 0.104 | 0.0928 | 0.622 | 0.629 | 0.602 | 0.583 | 0.336 | 0.404 | 0.175 | 0.252 |  |  |  | 
3 | HCC-827 | 0.839 | 0.81 | 0.933 | 0.763 | 1.13 | 1.02 | 1.12 | 0.961 | 0.448 | 0.372 | 0.414 | 0.387 | 0.448 | 0.621 | 0.525 | 0.639 | 0.746 | 0.657 | 0.823 | 0.644
4 | HOP-62 | 0.833 | 0.917 | 0.84 | 0.768 | 0.803 | 0.586 | 0.682 | 0.66 | 0.711 | 0.744 | 0.789 | 0.667 | 0.419 | 0.265 | 0.266 | 0.605 | 0.81 | 1.01 | 1.08 | 1.02
5 | IA-LM |  |  |  |  | 0.367 | 0.311 | 0.531 | 0.332 |  |  |  |  | 0.783 | 0.797 | 0.768 | 0.757 |  |  |  | 
6 | LC-2-ad | 0.841 | 0.767 | 0.867 | 0.658 | 0.471 | 0.387 | 0.333 | 0.202 | 0.585 | 0.5 | 0.48 | 0.41 | 0.756 | 0.456 | 0.685 | 0.608 | 1.16 | 1.03 | 0.938 | 0.662
7 | LCLC-97TM1 | 0.462 | 0.604 | 0.673 | 0.332 | 0.186 | 0.163 | 0.206 | 0.137 | 0.495 | 0.444 | 0.457 | 0.348 | 0.507 | 0.404 | 0.409 | 0.266 | 0.939 | 0.657 | 0.774 | 0.456
8 | LCLC-103H | 0.476 | 0.528 | 0.488 | 0.501 | 0.577 | 0.674 | 0.596 | 0.643 | 0.301 | 0.327 | 0.355 | 0.298 | 0.794 | 0.73 | 0.761 | 0.763 | 0.941 | 0.84 | 1.06 | 0.737
9 | LK-2 | 0.248 | 0.194 | 0.186 | 0.2 | 0.622 | 0.556 | 0.47 | 0.557 | 0.501 | 0.485 | 0.503 | 0.444 | 0.769 | 0.883 | 0.739 | 0.641 | 0.186 | 0.174 | 0.175 | 0.189
10 | LOU-NH91 | 0.794 | 0.75 | 0.735 | 0.724 | 0.509 | 0.507 | 0.541 | 0.5 | 0.861 | 0.713 | 0.658 | 0.697 | 0.9 | 0.918 | 0.754 | 0.902 | 0.372 | 0.3 | 0.303 | 0.307
11 | LU99A | 0.306 | 0.296 | 0.287 | 0.257 | 0.384 | 0.317 | 0.329 | 0.252 | 0.875 | 0.741 | 0.915 | 0.53 | 0.211 | 0.264 | 0.17 | 0.222 | 0.288 | 0.278 | 0.226 | 0.294
12 | LXF-289 | 0.793 | 0.898 | 0.959 | 0.681 | 0.844 | 0.77 | 0.879 | 0.649 | 0.464 | 0.529 | 0.582 | 0.467 | 1.06 | 1.04 | 1.2 | 0.81 | 0.707 | 0.693 | 0.828 | 0.51
13 | NCI-H23 | 0.6 | 0.701 | 0.621 | 0.506 | 0.515 | 0.504 | 0.41 | 0.391 | 0.803 | 0.825 | 0.794 | 0.782 | 0.335 | 0.308 | 0.247 | 0.225 |  | 0.207 | 0.216 | 0.211
14 | NCI-H322M | 0.614 | 0.587 | 0.414 | 0.559 | 0.627 | 0.521 | 0.537 | 0.527 | 0.858 | 0.796 | 0.951 | 0.659 | 0.978 | 0.821 | 0.577 | 0.885 | 0.589 | 0.915 | 0.266 | 1.03
15 | NCI-H522 | 0.801 | 0.71 | 0.769 | 0.685 |  |  |  |  | 0.645 | 0.643 | 0.681 | 0.668 | 0.616 | 0.586 | 0.692 | 0.658 | 1.41 | 1.23 | 1.02 | 1.01
16 | NCI-H1563 | 0.782 | 0.749 | 0.821 | 0.67 | 0.689 | 0.522 | 0.659 | 0.673 | 0.679 | 0.641 | 0.744 | 0.567 |  |  |  |  | 0.593 | 0.472 | 0.47 | 0.447
17 | NCI-H2342 | 0.66 | 0.569 | 0.591 | 0.637 |  |  |  |  | 0.643 | 0.515 | 0.538 | 0.544 | 0.497 | 0.448 | 0.479 | 0.357 | 0.793 | 0.588 | 0.79 | 0.743
18 | SW 900 | 0.679 | 0.521 | 0.487 | 0.423 |  |  |  |  | 0.478 | 0.627 | 0.613 | 0.693 | 0.755 |  | 1.25 | 0.775 | 0.17 | 0.157 | 0.19 | 0.169
